49 compounds from patent publication US10766872B2, “Compounds for the treatment of mycobacterial infections” (The Broad Institute, Inc., priority 2011, dated 2020) can be followed below.

Molecules are shown by their SMILES. Counter-ions that a name gives are not always drawn. Like-named read-outs stand apart in the source and are kept apart here.

The assay concerns Mtb strain H37Rv. Kind of assay: Antitubercular activity, OD600 based growth inhibition assay (IC90). The format is cell-based, Mycobacterium tuberculosis.
The mark [1] stands for this setting: Mycobacterium tuberculosis, H37RV, 168 h, Mtb H37Rv, 7 days incubation, growth read by OD600, concentration giving 90% inhibition of growth of the control, read-out: IC90.
The mark [2] stands for this setting: Mtb H37Rv, 7 days incubation, growth read by OD600, concentration giving 90% inhibition of growth of the control, read-out: IC90.

As a reminder, the IC90 is the point of the concentration-response curve where the effect stands at 90%. In the case of `Cc1cc2oc(=O)cc(-c3ccccc3)c2c(C)c1-c1ccc(CNC2CCCCC2)cc1` [Compound 3, 6-(4-((Cyclohexylamino)methyl)phenyl)-5,7-dimethyl-4-phenyl-2H-chromen-2-one], the IC90 under setting [1] lay in the range of 0.001 to 10 µM.
Turning to `Cc1ccc(-c2c(C)cc3oc(=O)cc(-c4ccccc4)c3c2C)cc1` [Compound 15], under setting [1], the IC90 fell in the range of 10 to 50 µM.
On to `COc1ncc(-c2c(C)cc3oc(=O)cc(-c4ccccc4)c3c2C)c(OC)n1` [Compound 39], for which the IC90 under setting [1] fell in the range of 10 to 50 µM.
On the same count and under the same terms, the same measure for `C=Cc1ccc(-c2c(C)cc3oc(=O)cc(-c4ccccc4)c3c2C)cc1` [Compound 23]: over 100 µM; for `COc1ccc(-c2cc(=O)oc3cc(C)c(-c4ccc(CN5CCOCC5)cc4)c(C)c23)cc1` [Compound 44]: over 100 µM; for `Cc1ccc(-c2ccc3oc(=O)cc(-c4ccccc4)c3c2)cc1` [Compound 45]: over 100 µM.
Same read-out and setting: next, `Cc1cc2oc(=O)cc(-c3ccccc3)c2cc1-c1ccc(CO)cc1` [Compound 48]: 50 to 100 µM.
As to `Cc1cc2oc(=O)cc(-c3ccccc3)c2c(C)c1-c1ccc(CO)cc1` [Compound 50], the IC90 under setting [2] is over 100 µM.
Turning to `COC(=O)c1cccc(-c2cc(=O)oc3cc(C)c(-c4ccc(CN5CCOCC5)cc4)c(C)c23)c1` [Compound 9, Methyl 3-(5,7-dimethyl-6-(4-(morpholinomethyl)phenyl)-2-oxo-2H-chromen-4-yl)benzoate], the IC90 under setting [1] was in the range of 50 to 100 µM.
Same read-out and setting: next, `Cc1cc2oc(=O)cc(-c3cccnc3)c2c(C)c1-c1ccc(CN2CCOCC2)cc1` [Compound 13, 5,7-Dimethyl-6-(4-(morpholinomethyl)phenyl)-4-(pyridin-3-yl)-2H-chromen-2-one]: 0.001 to 10 µM; `COc1ccc(-c2c(C)cc3oc(=O)cc(-c4ccccc4)c3c2C)cc1` [Compound 16]: over 100 µM.
Still for that read-out and setting: next, `Cc1cc2oc(=O)cc(-c3ccccc3)c2c(C)c1-c1ccc(F)cc1` [Compound 28]: 10 to 50 µM; `Cc1c(-c2ccc(CO)cc2)ccc2oc(=O)cc(-c3ccccc3)c12` [Compound 49]: 50 to 100 µM.
On the same count and under the same terms, next, `Cc1cc2oc(=O)cc(-c3ccccc3)c2c(C)c1-c1cccc(F)c1` [Compound 29]: 10 to 50 µM; `Cc1cc2oc(=O)cc(-c3ccccc3)c2c(C)c1-c1cnc(C)c2ccccc12` [Compound 40]: over 100 µM.
Take `Cc1cnccc1-c1c(C)cc2oc(=O)cc(-c3ccccc3)c2c1C` [Compound 36]: the IC90 under setting [1] fell in the range of 10 to 50 µM.
For `Cc1cc2oc(=O)cc(-c3cccc(NS(C)(=O)=O)c3)c2c(C)c1-c1ccc(CN2CCOCC2)cc1` [Compound 11, N-(3-(5,7-dimethyl-6-(4-(morpholinomethyl)phenyl)-2-oxo-2H-chromen-4-yl)phenyl)methanesulfonamide], the 90% effect concentration (IC90) under setting [1] lay in the range of 50 to 100 µM.
For `Cc1cc2oc(=O)cc(-c3ccc(N)cc3)c2c(C)c1-c1ccc(CN2CCOCC2)cc1` [Compound 7, 4-(4-Aminophenyl)-5,7-dimethyl-6-(4-(morpholinomethyl)phenyl)-2H-chromen-2-one], the IC90 under setting [1] fell in the range of 10 to 50 µM.
The same measure, in the same setting: the same measure for `Cc1ccc(/C=C/c2c(C)cc3oc(=O)cc(-c4ccccc4)c3c2C)cc1` [Compound 42]: 50 to 100 µM.
The same measure, in the same setting: next, `Cc1cc2oc(=O)cc(-c3ccccc3)c2c(C)c1-c1ccc(C(F)(F)F)cc1` [Compound 30]: 10 to 50 µM.
With `COc1ccccc1-c1c(C)cc2oc(=O)cc(-c3ccccc3)c2c1C` [Compound 17], the IC90 under setting [1] is over 100 µM.
In the case of `Cc1cc2oc(=O)cc(-c3ccccc3)c2c(C)c1-c1ccc(Cl)cc1` [Compound 25], under setting [1], the IC90 lay within 50 to 100 µM.
Still for that read-out and setting: next, `CCc1ccc(-c2c(C)cc3oc(=O)cc(-c4ccccc4)c3c2C)cc1` [Compound 24]: over 100 µM.
Turning to `Cc1cc(CO)ccc1-c1c(C)cc2oc(=O)cc(-c3ccccc3)c2c1C` [Compound 21], the 90% effect concentration (IC90) under setting [1] is 10 to 50 µM.
Same read-out and setting: next, `COc1cccc(-c2c(C)cc3oc(=O)cc(-c4ccccc4)c3c2C)c1` [Compound 18]: 10 to 50 µM; `Cc1cc2oc(=O)cc(-c3ccccc3)c2c(C)c1-c1ccccc1Cl` [Compound 27]: 10 to 50 µM.
For the compound `CCOC(=O)Nc1cccc(-c2cc(=O)oc3cc(C)c(-c4ccc(CN5CCOCC5)cc4)c(C)c23)c1` [Compound 12, Ethyl (3-(5,7-dimethyl-6-(4-(morpholinomethyl)phenyl)-2-oxo-2H-chromen-4-yl)phenyl)carbamate], the concentration for an effect of 90% (IC90) under setting [2] is 10 to 50 µM.
On to `Cc1cc2oc(=O)cc(-c3ccccc3)c2c(C)c1-c1cccc(Cl)c1` [Compound 26], for which the IC90 under setting [1] was over 100 µM.
The same measure, in the same setting: next, `Cc1cc2oc(=O)cc(-c3ccccc3)c2c(C)c1-c1cncnc1` [Compound 41]: 0.001 to 10 µM; `Cc1cc2oc(=O)cc(-c3ccccc3)c2c(C)c1-c1ccncc1` [Compound 35]: 0.001 to 10 µM.
As to `COc1ncc(-c2c(C)cc3oc(=O)cc(-c4ccccc4)c3c2C)cn1` [Compound 38], the concentration for an effect of 90% (IC90) under setting [1] was over 100 µM.
In turn, `Cc1cc2oc(=O)cc(-c3cccc(N)c3)c2c(C)c1-c1ccc(CN2CCOCC2)cc1` [Compound 6, 4-(3-Aminophenyl)-5,7-dimethyl-6-(4-(morpholinomethyl)phenyl)-2H-chromen-2-one hydrochloride] had an IC90 (Mycobacterium tuberculosis, H37RV, 168 h) of 0.001 to 10 µM.
`CC(=O)c1ccc(-c2c(C)cc3oc(=O)cc(-c4ccccc4)c3c2C)cc1` [Compound 32]: the 90% effect concentration (IC90) under setting [1] is over 100 µM.
Regarding `Cc1cc2oc(=O)cc(-c3cccc([N+](=O)[O-])c3)c2c(C)c1-c1ccc(CN2CCOCC2)cc1` [Compound 8, 5,7-Dimethyl-6-(4-(morpholinomethyl)phenyl)-4-(3-nitrophenyl)-2H-chromen-2-one], the IC90 under setting [1] fell in the range of 0.001 to 10 µM.
Turning to `O=c1cc(-c2ccccc2)c2cc(-c3ccc(CO)cc3)ccc2o1` [Compound 47], the 90% effect concentration (IC90) under setting [1] is over 100 µM.
`Cc1cc2oc(=O)cc(-c3ccccc3)c2c(C)c1-c1ccc(CN2CCOCC2)cc1` [Compound 1, 5,7-Dimethyl-6-(4-(morpholinomethyl)phenyl)-4-phenyl-2H-chromen-2-one]: the IC90 under setting [1] was in the range of 0.001 to 10 µM.
On the same count and under the same terms, next, `Cc1cc2oc(=O)cc(-c3ccccc3)c2c(C)c1-c1ccc(O)cc1` [Compound 19]: over 100 µM; `Cc1cc2oc(=O)cc(-c3ccccc3)c2c(C)c1-c1ccc(C(C)O)cc1` (stereo not shown) [Compound 33]: 0.001 to 10 µM.
As for `CCOC(=O)Nc1cccc(-c2cc(=O)oc3cc(C)c(-c4ccc(CN5CCOCC5)cc4)c(C)c23)c1` [Compound 43], the IC90 under setting [2] was over 100 µM.
For `Cc1cc2oc(=O)cc(-c3ccccc3)c2c(C)c1-c1ccc(C#N)cc1` [Compound 14], the IC90 under setting [1] is over 100 µM.
In the case of `Cc1cc2oc(=O)cc(-c3ccccc3)c2c(C)c1-c1cccnc1` [Compound 37], the IC90 under setting [1] lay within 50 to 100 µM.
Same read-out and setting: next, `CCCCCCNCc1ccc(-c2c(C)cc3oc(=O)cc(-c4ccccc4)c3c2C)cc1` [Compound 4, 6-(4-((Hexylamino)methyl)phenyl)-5,7-dimethyl-4-phenyl-2H-chromen-2-one]: 0.001 to 10 µM.
For `Cc1cc2oc(=O)cc(-c3ccccc3)c2c(C)c1-c1ccc(CO)cc1` [Compound 20], the IC90 under setting [2] lay in the range of 0.001 to 10 µM.
Regarding `CC(=O)Nc1cccc(-c2cc(=O)oc3cc(C)c(-c4ccc(CN5CCOCC5)cc4)c(C)c23)c1` [Compound 10, N-(3-(5,7-dimethyl-6-(4-(morpholinomethyl)phenyl)-2-oxo-2H-chromen-4-yl)phenyl)acetamide], under setting [1], the IC90 fell in the range of 10 to 50 µM.
Still for that read-out and setting: the same measure for `Cc1cc2oc(=O)cc(-c3ccccc3)c2c(C)c1-c1ccc(CN2CCCCC2)cc1` [Compound 2, 5,7-Dimethyl-4-phenyl-6-(4-(piperidine-1-ylmethyl)phenyl)-2H-chromen-2-one]: 10 to 50 µM.
For the compound `Cc1cc2oc(=O)cc(-c3ccccc3)c2c(C)c1-c1ccc(CS)cc1` [Compound 22], the IC90 under setting [1] is over 100 µM.
As for `Cc1cc2oc(=O)cc(-c3ccccc3)c2c(C)c1-c1ccc(CN2CCN(C)CC2)cc1` [Compound 5, 5,7-Dimethyl-6-(4-((4-methylpiperazin-1-yl)methyl)phenyl)-4-phenyl-2H-chromen-2-one], the concentration for an effect of 90% (IC90) under setting [1] was in the range of 0.001 to 10 µM.
Still for that read-out and setting: the same measure for `CNC(=O)c1ccc(-c2c(C)cc3oc(=O)cc(-c4ccccc4)c3c2C)cc1` [Compound 34]: 0.001 to 10 µM.
In the case of `Cc1cc2oc(=O)cc(-c3ccccc3)c2c(C)c1-c1cccc(C(F)(F)F)c1` [Compound 31], the 90% effect concentration (IC90) under setting [1] is over 100 µM.
